Where “and” joins values, the source holds several entries; their conditions need not be identical. Equal values may be shown once. One block for each compound: values may come before it.
Tested on: PANC-1 complex spheroid growth, percent test/control
Assay: Anticancer human tumor PANC-1 cell line growth inhibition [Asc];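 also: spheroids exposed to agents for 7 days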;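 as to viability, T/C: percent viability relative to DMSO vehicle wells taken as 100%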
Conditions: for viability, T/C: stronger effect = lower value
Outline: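 Tumor cells were grown as multicellular spheroids with stromal HUVEC and mesenchymal stem cells and treated singly or in combination. Concentrations fell in half-log steps from the clinical Cmax, or from 10 microM where none was known.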

[1] = curve of first compound, second compound 0.00949 µM
[2] = curve of first compound, second compound 0.03 µM
[3] = curve of first compound, second compound 0.0949 µM
[4] = curve of first compound, second compound 0.3 µM
[5] = curve of first compound, second compound 0.949 µM
[6] = curve of first compound, second compound 3 µM
[7] = second compound 0.00949 µM, first compound 0.00316 µM
[8] = second compound 0.00949 µM, first compound 0.01 µM
[9] = second compound 0.00949 µM, first compound 0.0316 µM
[10] = second compound 0.00949 µM, first compound 0.1 µM
[11] = second compound 0.00949 µM, first compound 0.316 µM
[12] = second compound 0.00949 µM, first compound 1 µM
[13] = second compound 0.03 µM, first compound 0.00316 µM
[14] = second compound 0.03 µM, first compound 0.01 µM
[15] = second compound 0.03 µM, first compound 0.0316 µM
[16] = second compound 0.03 µM, first compound 0.1 µM
[17] = second compound 0.03 µM, first compound 0.316 µM
[18] = second compound 0.03 µM, first compound 1 µM
[19] = second compound 0.0949 µM, first compound 0.00316 µM
[20] = second compound 0.0949 µM, first compound 0.01 µM
[21] = second compound 0.0949 µM, first compound 0.0316 µM
[22] = second compound 0.0949 µM, first compound 0.1 µM
[23] = second compound 0.0949 µM, first compound 0.316 µM
[24] = second compound 0.0949 µM, first compound 1 µM
[25] = second compound 0.3 µM, first compound 0.00316 µM
[26] = second compound 0.3 µM, first compound 0.01 µM
[27] = second compound 0.3 µM, first compound 0.0316 µM
[28] = second compound 0.3 µM, first compound 0.1 µM
[29] = second compound 0.3 µM, first compound 0.316 µM
[30] = second compound 0.3 µM, first compound 1 µM
[31] = second compound 0.949 µM, first compound 0.00316 µM
[32] = second compound 0.949 µM, first compound 0.01 µM
[33] = second compound 0.949 µM, first compound 0.0316 µM
[34] = second compound 0.949 µM, first compound 0.1 µM
[35] = second compound 0.949 µM, first compound 0.316 µM
[36] = second compound 0.949 µM, first compound 1 µM
[37] = second compound 3 µM, first compound 0.00316 µM
[38] = second compound 3 µM, first compound 0.01 µM
[39] = second compound 3 µM, first compound 0.0316 µM
[40] = second compound 3 µM, first compound 0.1 µM
[41] = second compound 3 µM, first compound 0.316 µM
[42] = second compound 3 µM, first compound 1 µM

IC50 [1]: > 1000 nM
IC50 [2]: > 1000 nM
IC50 [3]: > 1000 nM
IC50 [4]: > 1000 nM
IC50 [5]: > 1000 nM
IC50 [6]: > 1000 nM
SMILES: CNC(C)C(=O)NC1CN(S(=O)(=O)c2cccc(S(=O)(=O)N3CCC4CCC(C(=O)NC(c5ccccc5)c5ccccc5)N4C(=O)C(NC(=O)C(C)NC)C3)c2)CCC2CCC(C(=O)NC(c3ccccc3)c3ccccc3)N2C1=O (stereo not drawn) + CCN1C(C(=O)NC23CCC(C(=O)O)(CC2)CC3)C(c2cccc(Cl)c2F)C2(C(=O)Nc3cc(Cl)ccc32)C12CCCCC2
viability, T/C [7]: 104%
viability, T/C [8]: 96.6%
viability, T/C [9]: 103%
viability, T/C [10]: 89.4%
viability, T/C [11]: 97%
viability, T/C [12]: 86.5%
viability, T/C [13]: 103%
viability, T/C [14]: 93.9%
viability, T/C [15]: 90.9%
viability, T/C [16]: 93.8%
viability, T/C [17]: 97.2%
viability, T/C [18]: 85.4%
viability, T/C [19]: 90.3%
viability, T/C [20]: 96.9%
viability, T/C [21]: 89.4%
viability, T/C [22]: 91.2%
viability, T/C [23]: 92.2%
viability, T/C [24]: 86.8%
viability, T/C [25]: 114%
viability, T/C [26]: 94.1%
viability, T/C [27]: 90.7%
viability, T/C [28]: 101%
viability, T/C [29]: 91.3%
viability, T/C [30]: 90.6%
viability, T/C [31]: 106%
viability, T/C [32]: 100%
viability, T/C [33]: 106%
viability, T/C [34]: 97.8%
viability, T/C [35]: 100%
viability, T/C [36]: 93.2%
viability, T/C [37]: 113%
viability, T/C [38]: 111%
viability, T/C [39]: 108%
viability, T/C [40]: 103%
viability, T/C [41]: 109%
viability, T/C [42]: 89.1%

IC50 (curve of compound): > 10000 nM
SMILES: C=CC(=O)N1CCN(c2nc(=O)n(-c3c(C)ccnc3C(C)C)c3nc(-c4c(O)cccc4F)c(F)cc23)C(C)C1 (stereo not drawn)
viability, T/C (compound 0.0316 µM): 105% and 97.2% and 101%
viability, T/C (compound 0.1 µM): 96% and 89.2% and 90%
viability, T/C (compound 0.316 µM): 104% and 106% and 98%
viability, T/C (compound 1 µM): 101% and 89.2% and 96.2%
viability, T/C (compound 3.16 µM): 85.8% and 99.7% and 91.8%
viability, T/C (compound 10 µM): 93.4% and 87.1% and 88%

IC50 (curve of first compound, second compound 0.0316 µM): > 1000 nM
IC50 (curve of first compound, second compound 0.1 µM): > 1000 nM
IC50 (curve of first compound, second compound 0.316 µM): > 1000 nM
IC50 (curve of first compound, second compound 1 µM): > 1000 nM
IC50 (curve of first compound, second compound 3.16 µM): > 1000 nM
IC50 (curve of first compound, second compound 10 µM): > 1000 nM
SMILES: CNC(C)C(=O)NC1CN(S(=O)(=O)c2cccc(S(=O)(=O)N3CCC4CCC(C(=O)NC(c5ccccc5)c5ccccc5)N4C(=O)C(NC(=O)C(C)NC)C3)c2)CCC2CCC(C(=O)NC(c3ccccc3)c3ccccc3)N2C1=O (stereo not drawn) + Cc1c(S(C)(=O)=O)c(-c2cc(F)cc(N3CCN(c4ccc(NS(=O)(=O)c5ccc(NC(CCN6CCC(C(=O)OCCCP(=O)(O)O)CC6)CSc6ccccc6)c(S(=O)(=O)C(F)(F)F)c5)cc4)CC3)c2)c(-c2ccc(Cl)cc2)n1C(C)C
viability, T/C (second compound 0.0316 µM, first compound 0.00316 µM): 100%
viability, T/C (second compound 0.0316 µM, first compound 0.01 µM): 92.3%
viability, T/C (second compound 0.0316 µM, first compound 0.0316 µM): 97.5%
viability, T/C (second compound 0.0316 µM, first compound 0.1 µM): 94.9%
viability, T/C (second compound 0.0316 µM, first compound 0.316 µM): 98.6%
viability, T/C (second compound 0.0316 µM, first compound 1 µM): 91.8%
viability, T/C (second compound 0.1 µM, first compound 0.00316 µM): 96.6%
viability, T/C (second compound 0.1 µM, first compound 0.01 µM): 98.4%
viability, T/C (second compound 0.1 µM, first compound 0.0316 µM): 105%
viability, T/C (second compound 0.1 µM, first compound 0.1 µM): 93.8%
viability, T/C (second compound 0.1 µM, first compound 0.316 µM): 98.6%
viability, T/C (second compound 0.1 µM, first compound 1 µM): 96.9%
viability, T/C (second compound 0.316 µM, first compound 0.00316 µM): 98.3%
viability, T/C (second compound 0.316 µM, first compound 0.01 µM): 113%
viability, T/C (second compound 0.316 µM, first compound 0.0316 µM): 97.4%
viability, T/C (second compound 0.316 µM, first compound 0.1 µM): 101%
viability, T/C (second compound 0.316 µM, first compound 0.316 µM): 103%
viability, T/C (second compound 0.316 µM, first compound 1 µM): 91.9%
viability, T/C (second compound 1 µM, first compound 0.00316 µM): 101%
viability, T/C (second compound 1 µM, first compound 0.01 µM): 113%
viability, T/C (second compound 1 µM, first compound 0.0316 µM): 105%
viability, T/C (second compound 1 µM, first compound 0.1 µM): 102%
viability, T/C (second compound 1 µM, first compound 0.316 µM): 109%
viability, T/C (second compound 1 µM, first compound 1 µM): 88.9%
viability, T/C (second compound 3.16 µM, first compound 0.00316 µM): 104%
viability, T/C (second compound 3.16 µM, first compound 0.01 µM): 104%
viability, T/C (second compound 3.16 µM, first compound 0.0316 µM): 103%
viability, T/C (second compound 3.16 µM, first compound 0.1 µM): 94.9%
viability, T/C (second compound 3.16 µM, first compound 0.316 µM): 98.5%
viability, T/C (second compound 3.16 µM, first compound 1 µM): 90.7%
viability, T/C (second compound 10 µM, first compound 0.00316 µM): 173%
viability, T/C (second compound 10 µM, first compound 0.01 µM): 183%
viability, T/C (second compound 10 µM, first compound 0.0316 µM): 173%
viability, T/C (second compound 10 µM, first compound 0.1 µM): 160%
viability, T/C (second compound 10 µM, first compound 0.316 µM): 185%
viability, T/C (second compound 10 µM, first compound 1 µM): 158%

IC50 [1]: > 1000 nM
IC50 [2]: > 1000 nM
IC50 [3]: > 1000 nM
IC50 [4]: > 1000 nM
IC50 [5]: > 1000 nM
IC50 [6]: > 1000 nM
SMILES: O=C(c1ccc(F)c(F)c1Nc1ccc(I)cc1F)N1CC(O)([C@@H]2CCCCN2)C1 + CCN1C(C(=O)NC23CCC(C(=O)O)(CC2)CC3)C(c2cccc(Cl)c2F)C2(C(=O)Nc3cc(Cl)ccc32)C12CCCCC2
viability, T/C [7]: 90.7%
viability, T/C [8]: 93.4%
viability, T/C [9]: 87.1%
viability, T/C [10]: 81.8%
viability, T/C [11]: 93.1%
viability, T/C [12]: 93.7%
viability, T/C [13]: 90.5%
viability, T/C [14]: 98.3%
viability, T/C [15]: 98.5%
viability, T/C [16]: 87.3%
viability, T/C [17]: 95%
viability, T/C [18]: 97.4%
viability, T/C [19]: 93.9%
viability, T/C [20]: 97%
viability, T/C [21]: 88.4%
viability, T/C [22]: 84.2%
viability, T/C [23]: 92.4%
viability, T/C [24]: 104%
viability, T/C [25]: 97.5%
viability, T/C [26]: 89.4%
viability, T/C [27]: 89.6%
viability, T/C [28]: 91.7%
viability, T/C [29]: 100%
viability, T/C [30]: 93.8%
viability, T/C [31]: 100%
viability, T/C [32]: 104%
viability, T/C [33]: 91.8%
viability, T/C [34]: 105%
viability, T/C [35]: 104%
viability, T/C [36]: 99%
viability, T/C [37]: 110%
viability, T/C [38]: 115%
viability, T/C [39]: 106%
viability, T/C [40]: 105%
viability, T/C [41]: 109%
viability, T/C [42]: 112%
